Assay results reported in US12208092B2, “Compositions and methods for administering paltusotine to patients with hepatic impairment” (CRINETICS PHARMACEUTICALS, INC., priority 2023, dated 2025).

Experiments:
[1] = Phase 1 mass balance (ADME) study, single oral 20 mg [14C]-paltusotine, healthy male volunteers; assay type: in vivo, human
Protocol: This was a Phase I, open-label, single-dose study with a primary objective to characterize the absorption, distribution, metabolism, excretion, and mass balance of a single oral dose of 20 mg paltusotine containing 3.0 MBq (80 μCi) of [^14C]-labeled paltusotine in healthy male subjects.
Subjects received a single oral dose of 20 mg paltusotine as an oral solution containing 3.0 MBq (80 μCi) of radioactivity on Day 1. For oral dosing, the total volume ingested by the subject, including the study drug (10 mL), the rinse solutions (a total of 100 mL; 2 drug vial rinses with 50 mL of water per rinse), and tap water (130 mL), was 240 mL. The subjects had to ingest all solutions in the upright position within 2 minutes between 8 AM and 11 AM after an overnight fast of at least 10 hours. Fasting continued for a period of 4 hours after oral drug administration. The time of oral dosing administration was recorded, and the empty study drug vials were measured for residual radioactivity.
Blood samples were taken for the analysis of unlabeled paltusotine and [^14C]-paltusotine concentrations, and metabolite profiling. Blood samples for analysis of pharmacokinetic parameters of paltusotine in plasma, quantification of total radioactivity in blood and plasma, and metabolite profiling were collected at predose and 0.25, 0.5, 0.75, 1, 1.5, 2, 3, 4, 8, 12, 24, 48, 72, 120, and 168 hours postdose (and every 48 hours thereafter, if needed, to assess radioactivity).
Urine was collected for the analysis of total radioactivity, for quick counts of total radioactivity, and for metabolite profiling. The subjects were instructed to urinate completely before study drug administration and at the end of each collection interval. A baseline urine sample was collected within 12 hours prior to each study drug administration. Urine was collected for quantification of total radioactivity and metabolite profiling at predose, 3 intervals on Day 1 (at 0-4, 4-8, and 8-24 hours postdose), and every 24 hours thereafter until discharge criteria were met.
All fecal excretions were collected for the analysis of total radioactivity, for quick counts of total radioactivity, and for metabolite profiling. A baseline fecal sample was collected within 48 hours prior to study drug administration and could be collected at home. The baseline sample was taken from the last bowel movement before study drug intake. Feces were collected for quantification of total radioactivity and metabolite profiling at predose and in 24-hour intervals until discharge criteria were met.
Analysis of paltusotine in plasma was performed by Q2 Solutions (IQVIA, Itaca, NY, USA) using a validated liquid chromatography-tandem mass spectrometry (LC-MS/MS) method. The lower limit of quantitation (LLOQ) for paltusotine in plasma was 0.5 ng/mL.
Analysis of total ^14C radioactivity in plasma, whole blood, urine, and feces was performed at the bioanalytic laboratory of PRA Heath Sciences via a validated liquid scintillation counting method. The LLOQ for total reactivity was 3.36 ng-eq/mL in plasma and 5.6 ng-eq/mL in whole blood.
Metabolite profiling of plasma, urine, and feces was performed at WuXi AppTec (Cranbury, NJ, USA). For plasma, samples were pooled by timepoint (0.5, 1, 1.5, 2, 4, 8, 12, and 24 hours postdose) for metabolite profiling. In addition, plasma samples were pooled by participant across timepoints (0-48 hours) using the Hamilton method and analyzed to determine the quantitative profile of radiolabeled components. Prior to radio-profiling, plasma samples were extracted using solid phase extraction.
For urine and feces, samples were pooled by timepoint (0-8, 8-24, and 24-72 hours postdose). Prior to radio-profiling, urine samples were centrifuged to remove solids, and fecal homogenates were extracted with acetonitrile. Plasma and fecal extracts and urine supernatants were subjected to LC separation and fraction collection. […]

plasma IGF-1 = test: chronic oral 14-day administration, suppression of IGF-1 in rat; assay type: in vivo
Protocol: The in vivo pharmacological efficacy of paltusotine has been examined in rat and dog. In the rat, acute efficacy was evaluated by examining the suppression of plasma GH in response to a challenge with rat growth hormone releasing hormone (rGHRH). […] The effects of chronic, oral, 14-day administration of paltusotine were evaluated by measuring the sustained suppression of IGF-1 in the rat.

[2] = tested on: large panel of other known receptors, channels, and enzymes
[3] = scaled from paltusotine and excretory metabolites

N#Cc1cccc(-c2ccc3ncc(-c4cc(F)cc(F)c4)c(N4CCC(N)CC4)c3c2)c1O [paltusotine, 3-[4-(4-amino-1-piperidyl)-3-(3,5-difluorophenyl)-6-quinolyl]-2-hydroxybenzonitrile]
component in feces ([1]; feces): 39.7 % of the dose
drug-related components detected in plasma ([1]; human plasma 0-48 h): the only drug-related component detected in human plasma (0-48 h) was paltusotine
administered radioactivity recovered in the feces ([1]; human, in vivo): 90%
administered radioactivity recovered in the urine ([1]; human, in vivo): 3.9%
dose excreted in the feces by metabolic profiling of excreta ([1]; human, in vivo): approximately 84%
total radioactivity excreted over 120 h ([1]; human, in vivo): 88 % of the administered dose
glucuronidation pathway share of metabolic clearance [1, 3]: 27.9 % of the dose
oxidative route share of metabolic clearance [1, 3]: 14.3%
component in urine ([1]; urine): 1.33 % of dose
unchanged paltusotine and metabolites excreted in urine ([1]; urine): < 4 % of the total administered radioactivity
total mean recovery of administered radioactivity ([1]; urine and feces): 94%
dose efficacious in suppressing plasma IGF-1 for up to 14 days (plasma IGF-1): > 10 mg/kg/day
selectivity for SST2 over panel of other receptors, channels, and enzymes [2]: > 2000 fold
